Data published in ChEMBL document CHEMBL1201862, “PubChem BioAssay data set” (2004).
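Tested at 5 concentrations; 48 h exposure; 96-well plates; endpoints linearly interpolated, else capped at highest concentration. The concentration for 50% growth inhibition is given as GI50.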 The source made the active and inactive calls. Cut-off read from the data, not from the text of the source: active = GI50 up to about 1.1 µM and inactive = higher.

Experiments:
Experiment in all cases: inhibition of tumour cell growth, NCI panel, 48 h
[1] = test system: UO-31
[2] = test system: SK-MEL-2
[3] = test system: CCRF-CEM
[4] = test system: NCI-H226
[5] = test system: KM12
[6] = test system: SNB-75
[7] = test system: EKVX
[8] = test system: DMS-273
[9] = test system: SR
[10] = test system: HOP-62
[11] = test system: HOP-18
[12] = test system: OVCAR-3
[13] = test system: NCI-H23
[14] = test system: DMS-114
[15] = test system: M14
[16] = test system: SW-620
[17] = test system: K562
[18] = test system: SK-OV-3
[19] = test system: SK-MEL-5
[20] = test system: SF-295
[21] = test system: OVCAR-5
[22] = test system: NCI-H460
[23] = test system: LXFL 529
[24] = test system: M19-MEL
[25] = test system: SF-539
[26] = test system: SNB-19
[27] = test system: HL-60
[28] = test system: DLD-1
[29] = test system: HCT-15
[30] = test system: CAKI-1
[31] = test system: HT-29
[32] = test system: A549
[33] = test system: HCC 2998
[34] = test system: SNB-78
[35] = test system: OVCAR-8
[36] = test system: HOP-92
[37] = test system: 786-0
[38] = test system: NCI-H522
[39] = test system: Malme-3M
[40] = test system: RXF 393
[41] = test system: MOLT-4
[42] = test system: OVCAR-4
[43] = test system: ACHN
[44] = test system: HCT-116
[45] = test system: SF-268
[46] = test system: IGROV-1
[47] = test system: SN12C
[48] = test system: COLO 205
[49] = test system: SK-MEL-28
[50] = test system: UACC-257
[51] = test system: RPMI-8226
[52] = test system: UACC-62
[53] = test system: U-251
[54] = test system: T47D
[55] = test system: LOX IMVI
[56] = test system: MDA-MB-435
[57] = test system: A498
[58] = test system: MCF7
[59] = test system: MDA-N
[60] = test system: DU-145
[61] = test system: TK-10
[62] = test system: PC-3
[63] = test system: KM-20L2

With CN1C(=O)C(C)(C)C2(SC(C)(C)C2(C)C)N(C)C1=S (stereo not given) the GI50 [1] was > 100 µM (inactive), the GI50 [2] was > 100 µM (inactive) and the GI50 [3] was > 100 µM (inactive). For the same compound, the GI50 [4] was > 100 µM (inactive), the GI50 [5] was > 100 µM (inactive) and the GI50 [6] was > 100 µM (inactive). For the same compound, the GI50 [7] was 32 µM (inactive), the GI50 [8] was > 100 µM (inactive) and the GI50 [9] was 55.3 µM (inactive). For the same compound, the GI50 [10] was > 100 µM (inactive), the GI50 [11] was > 100 µM (inactive) and the GI50 [12] was > 100 µM (inactive). The GI50 [13] was > 100 µM (inactive), the GI50 [14] was 67.3 µM (inactive) and the GI50 [15] was > 100 µM (inactive). For the same compound, the GI50 [16] was > 100 µM (inactive), the GI50 [17] was 53.8 µM (inactive) and the GI50 [18] was 36.1 µM (inactive). The GI50 [19] was > 10 µM (inactive), the GI50 [20] was > 100 µM (inactive) and the GI50 [21] was > 100 µM (inactive). For the same compound, the GI50 [22] was > 100 µM (inactive), the GI50 [23] was > 100 µM (inactive) and the GI50 [24] was > 100 µM (inactive). For the same compound, the GI50 [25] was > 100 µM (inactive), the GI50 [26] was > 100 µM (inactive) and the GI50 [27] was 96.2 µM (inactive). For the same compound, the GI50 [28] was > 100 µM (inactive), the GI50 [29] was greater than 100 µM and the GI50 [30] was 8.49 µM (inactive). The GI50 [31] was > 100 µM (inactive), the GI50 [32] was > 100 µM (inactive) and the GI50 [33] was > 100 µM (inactive). For the same compound, the GI50 [34] was > 100 µM (inactive), the GI50 [35] was > 100 µM (inactive) and the GI50 [36] was 27.8 µM (inactive). The GI50 [37] was > 100 µM (inactive), the GI50 [38] was 86.7 µM (inactive) and the GI50 [39] was > 100 µM (inactive). The GI50 [40] was > 100 µM (inactive), the GI50 [41] was 89.3 µM (inactive) and the GI50 [42] was > 100 µM (inactive). For the same compound, the GI50 [43] was > 100 µM (inactive), the GI50 [44] was > 100 µM (inactive) and the GI50 [45] was > 100 µM (inactive). The GI50 [46] was > 100 µM (inactive), the GI50 [47] was > 100 µM (inactive) and the GI50 [48] was > 100 µM (inactive). For the same compound, the GI50 [49] was > 100 µM (inactive), the GI50 [50] was > 100 µM (inactive) and the GI50 [51] was > 100 µM (inactive). For the same compound, the GI50 [52] was 2.12 µM (inactive) and the GI50 [53] was > 100 µM (inactive).

COC1CC(C)C(OC)c2cc(O)cc(c2O)NC(=O)/C(C)=C/C=C\C(C)C(OC(N)=O)/C(C)=C\C(C)C1OC (stereo not given) was tested, and the GI50 [1] was 7.11 µM (inactive), the GI50 [2] was 1.69 µM (inactive) and the GI50 [3] was 0.192 µM (active). The GI50 [4] was 7.35 µM (inactive), the GI50 [5] was 0.255 µM (active) and the GI50 [6] was 0.776 µM (active). The GI50 [7] was 10.5 µM (inactive), the GI50 [8] was 0.225 µM (active) and the GI50 [9] was 0.0396 µM (active). The GI50 [10] was 0.579 µM (active), the GI50 [54] was 0.266 µM (active) and the GI50 [55] was 0.471 µM (active). For the same compound, the GI50 [11] was 0.0925 µM (active), the GI50 [14] was 0.406 µM (active) and the GI50 [15] was 1.02 µM (active). The GI50 [16] was 0.082 µM (active), the GI50 [18] was 0.292 µM (active) and the GI50 [19] was 0.268 µM (active). The GI50 [20] was 1.24 µM (inactive), the GI50 [21] was 1.47 µM (inactive) and the GI50 [22] was 0.203 µM (active). The GI50 [23] was 0.191 µM (active), the GI50 [56] was 0.0998 µM (active) and the GI50 [24] was 0.437 µM (active). The GI50 [25] was 0.417 µM (active), the GI50 [57] was 3.49 µM (inactive) and the GI50 [26] was 3.78 µM (inactive). For the same compound, the GI50 [58] was 0.125 µM (active), the GI50 [29] was 5.6 µM and the GI50 [31] was 0.139 µM (active). For the same compound, the GI50 [32] was 2.51 µM (inactive), the GI50 [33] was 0.951 µM (active) and the GI50 [34] was 1.42 µM (inactive). For the same compound, the GI50 [35] was 7.28 µM (inactive), the GI50 [36] was 0.347 µM (active) and the GI50 [37] was 2.03 µM (inactive). The GI50 [38] was 0.0863 µM (active), the GI50 [39] was 0.225 µM (active) and the GI50 [59] was 0.144 µM (active). For the same compound, the GI50 [40] was 0.316 µM (active), the GI50 [41] was 0.083 µM (active) and the GI50 [42] was 3.2 µM (inactive). For the same compound, the GI50 [43] was 4.98 µM (inactive), the GI50 [60] was 0.231 µM (active) and the GI50 [44] was 0.297 µM (active). The GI50 [45] was 2.19 µM (inactive), the GI50 [46] was 0.221 µM (active) and the GI50 [47] was 0.36 µM (active). For the same compound, the GI50 [48] was 0.0516 µM (active), the GI50 [61] was 6.97 µM (inactive) and the GI50 [49] was 0.336 µM (active). For the same compound, the GI50 [50] was 0.397 µM (active), the GI50 [51] was 0.152 µM (active) and the GI50 [62] was 0.228 µM (active). The GI50 [52] was 0.274 µM (active), the GI50 [63] was 0.188 µM (active) and the GI50 [53] was 0.497 µM (active).
